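48-hour exposure; five concentrations; linearly interpolated endpoints. Abbreviation: GI50, concentration required for 50% inhibition of growth. At the TGI there is no net growth.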
Legend:
Test in all cases: NCI-60 cell line screen, 48 h
[1] = test system: A498 renal
[2] = test system: ACHN renal
[3] = test system: BT-549 breast
[4] = test system: CAKI-1 renal
[5] = test system: CCRF-CEM leukemia
[6] = test system: COLO 205 colon
[7] = test system: DU-145 prostate
[8] = test system: HCC-2998 colon
[9] = test system: HCT-116 colon
[10] = test system: HCT-15 colon
[11] = test system: HL-60(TB) leukemia
[12] = test system: HOP-62 NSCLC
[13] = test system: HS 578T breast
[14] = test system: HT29 colon
[15] = test system: K-562 leukemia
[16] = test system: KM12 colon
[17] = test system: LOX IMVI melanoma
[18] = test system: M14 melanoma
[19] = test system: MCF7 breast
[20] = test system: MDA-MB-231 breast
[21] = test system: MDA-MB-435
[22] = test system: NCI-H23 lung
[23] = test system: OVCAR-3 ovarian
[24] = test system: OVCAR-4 ovarian
[25] = test system: OVCAR-5 ovarian
[26] = test system: OVCAR-8 ovarian
[27] = test system: SF-268 CNS
[28] = test system: SF-295 CNS
[29] = test system: SF-539 CNS
[30] = test system: SK-MEL-28 melanoma
[31] = test system: SK-MEL-5 melanoma
[32] = test system: SK-OV-3 ovarian
[33] = test system: SNB-19 CNS
[34] = test system: SW-620 colon
[35] = test system: TK-10 renal
[36] = test system: U251 CNS
[37] = test system: UACC-257 melanoma
[38] = test system: UACC-62 melanoma
[39] = test system: UO-31 renal
[40] = test system: EKVX NSCLC
[41] = test system: HOP-92 NSCLC
[42] = test system: NCI/ADR-RES ovarian
[43] = test system: PC-3 prostate
[44] = test system: RXF 393 renal
[45] = test system: SK-MEL-2 melanoma
[46] = test system: 786-0 renal
[47] = test system: A549 NSCLC
[48] = test system: IGROV1 ovarian
[49] = test system: MALME-3M melanoma
[50] = test system: MOLT-4 leukemia
[51] = test system: NCI-H226 lung
[52] = test system: NCI-H460 lung
[53] = test system: NCI-H522 lung
[54] = test system: RPMI-8226 leukemia
[55] = test system: SN12C renal
[56] = test system: SNB-75 CNS
[57] = test system: SR leukemia

With `CC1(C)CC(C(=O)OCCCCCCCCCCC[P+](c2ccccc2)(c2ccccc2)c2ccccc2)C(C)(C)N1O` (stereo not drawn) the GI50 [1] was 353 nM, the TGI [1] was 1260 nM and the GI50 [2] was 422 nM. It also gave a TGI [2] of 1480 nM, a GI50 [3] of 116 nM and a TGI [3] of 1050 nM. The GI50 [4] was 781 nM, the TGI [4] was 2320 nM and the GI50 [5] was 110 nM. The TGI [5] was 766 nM, the GI50 [6] was 168 nM and the TGI [6] was 330 nM. For the same compound, the GI50 [7] was 319 nM, the TGI [7] was 1390 nM and the GI50 [8] was 324 nM. For the same compound, the TGI [8] was 1520 nM, the GI50 [9] was 185 nM and the TGI [9] was 1080 nM. The GI50 [10] was 870 nM, the TGI [10] was 2230 nM and the GI50 [11] was 35.5 nM. For the same compound, the TGI [11] was 130 nM, the GI50 [12] was 319 nM and the TGI [12] was 904 nM. It also gave a GI50 [13] of 354 nM, a TGI [13] of 1840 nM and a GI50 [14] of 210 nM. It also gave a TGI [14] of 1170 nM, a GI50 [15] of 85.2 nM and a TGI [15] of 784 nM. For the same compound, the GI50 [16] was 151 nM, the TGI [16] was 1130 nM and the GI50 [17] was 207 nM. The TGI [17] was 1050 nM, the GI50 [18] was 302 nM and the TGI [18] was 1080 nM. It also gave a GI50 [19] of 187 nM, a TGI [19] of 836 nM and a GI50 [20] of 252 nM. For the same compound, the TGI [20] was 849 nM, the GI50 [21] was 274 nM and the TGI [21] was 1330 nM. For the same compound, the GI50 [22] was 271 nM, the TGI [22] was 1680 nM and the GI50 [23] was 132 nM. For the same compound, the TGI [23] was 835 nM, the GI50 [24] was 249 nM and the TGI [24] was 1400 nM. The GI50 [25] was 386 nM, the TGI [25] was 1380 nM and the GI50 [26] was 319 nM. It also gave a TGI [26] of 1720 nM, a GI50 [27] of 394 nM and a TGI [27] of 1540 nM. It also gave a GI50 [28] of 211 nM, a TGI [28] of 538 nM and a GI50 [29] of 324 nM. The TGI [29] was 1280 nM, the GI50 [30] was 653 nM and the TGI [30] was 1970 nM. It also gave a GI50 [31] of 150 nM, a TGI [31] of 299 nM and a GI50 [32] of 248 nM. For the same compound, the TGI [32] was 711 nM, the GI50 [33] was 263 nM and the TGI [33] was 1240 nM. The GI50 [34] was 344 nM, the TGI [34] was 1450 nM and the GI50 [35] was 362 nM. It also gave a TGI [35] of 1670 nM, a GI50 [36] of 59.6 nM and a TGI [36] of 1110 nM. For the same compound, the GI50 [37] was 248 nM, the TGI [37] was 847 nM and the GI50 [38] was 253 nM. For the same compound, the TGI [38] was 1240 nM, the GI50 [39] was 972 nM and the TGI [39] was 2290 nM.
`O=C(C[n+]1ccn(CC(OCc2ccc(Cl)cc2Cl)c2ccc(Cl)cc2Cl)c1)c1ccc(F)cc1` (stereo not drawn) was tested, and the GI50 [1] was 1420 nM, the TGI [1] was 3360 nM and the GI50 [4] was 2050 nM. For the same compound, the TGI [4] was 18300 nM, the GI50 [7] was 1660 nM and the TGI [7] was 3090 nM. The GI50 [40] was 1110 nM, the TGI [40] was 2400 nM and the GI50 [10] was 4650 nM. It also gave a TGI [10] of 67600 nM, a GI50 [41] of 1270 nM and a TGI [41] of 2840 nM. It also gave a GI50 [13] of 1600 nM, a TGI [13] of 3720 nM and a GI50 [21] of 1310 nM. For the same compound, the TGI [21] was 2720 nM, the GI50 [42] was 16500 nM and the TGI [42] was 57500 nM. The GI50 [43] was 1550 nM, the TGI [43] was 2910 nM and the GI50 [44] was 1810 nM. It also gave a TGI [44] of 3310 nM, a GI50 [27] of 1440 nM and a TGI [27] of 3090 nM. The GI50 [28] was 1630 nM, the TGI [28] was 3190 nM and the GI50 [45] was 1650 nM. The TGI [45] was 3110 nM, the GI50 [30] was 1700 nM and the TGI [30] was 3120 nM. It also gave a GI50 [37] of 1430 nM, a TGI [37] of 2800 nM and a GI50 [39] of 2430 nM. The TGI [39] was 17000 nM.
`NC1=C(/C(N)=N/O)C(c2ccccc2)c2ccc3ccccc3c2O1` (stereo not drawn) was tested, and the GI50 [46] was 513 nM, the TGI [46] was > 58000 nM and the GI50 [1] was 168 nM. For the same compound, the TGI [1] was 720 nM, the GI50 [47] was 617 nM and the TGI [47] was > 100000 nM. For the same compound, the GI50 [2] was 458 nM, the TGI [2] was 51100 nM and the GI50 [3] was 1110 nM. For the same compound, the TGI [3] was 69600 nM, the GI50 [4] was 192 nM and the TGI [4] was 42300 nM. The GI50 [5] was 388 nM, the TGI [5] was > 62800 nM and the GI50 [6] was 456 nM. The TGI [6] was 7260 nM, the GI50 [7] was 463 nM and the TGI [7] was > 37200 nM. For the same compound, the GI50 [40] was 1010 nM, the TGI [40] was > 100000 nM and the GI50 [8] was 729 nM. For the same compound, the TGI [8] was 15800 nM, the GI50 [9] was 444 nM and the TGI [9] was 30700 nM. For the same compound, the GI50 [10] was 226 nM, the TGI [10] was 20100 nM and the GI50 [11] was 275 nM. The TGI [11] was 788 nM, the GI50 [12] was 524 nM and the TGI [12] was > 100000 nM. For the same compound, the GI50 [41] was 579 nM, the TGI [41] was > 73100 nM and the GI50 [13] was 276 nM. For the same compound, the TGI [13] was > 77600 nM, the GI50 [14] was 1160 nM and the TGI [14] was > 100000 nM. The GI50 [48] was 459 nM, the TGI [48] was > 64300 nM and the GI50 [15] was 145 nM. For the same compound, the TGI [15] was > 100000 nM, the GI50 [16] was 302 nM and the TGI [16] was 36400 nM. For the same compound, the GI50 [17] was 621 nM, the TGI [17] was 17200 nM and the GI50 [18] was 208 nM. The TGI [18] was 21100 nM, the GI50 [49] was 2290 nM and the TGI [49] was > 76100 nM. It also gave a GI50 [19] of 261 nM, a TGI [19] of 97400 nM and a GI50 [20] of 988 nM. The TGI [20] was 24500 nM, the GI50 [50] was 496 nM and the TGI [50] was > 100000 nM. The GI50 [51] was 8010 nM, the TGI [51] was 77100 nM and the GI50 [22] was 479 nM. For the same compound, the TGI [22] was > 100000 nM, the GI50 [52] was 341 nM and the TGI [52] was 16100 nM. The GI50 [53] was 145 nM, the TGI [53] was 26700 nM and the GI50 [42] was 57.8 nM. For the same compound, the TGI [42] was 1650 nM, the GI50 [23] was 225 nM and the TGI [23] was 675 nM. For the same compound, the GI50 [24] was 831 nM, the TGI [24] was > 100000 nM and the GI50 [25] was 1190 nM. The TGI [25] was > 100000 nM, the GI50 [26] was 725 nM and the TGI [26] was > 92900 nM. For the same compound, the GI50 [43] was 291 nM, the TGI [43] was > 100000 nM and the GI50 [54] was 380 nM. The TGI [54] was 28900 nM, the GI50 [44] was 249 nM and the TGI [44] was 929 nM. For the same compound, the GI50 [27] was 1090 nM, the TGI [27] was > 72600 nM and the GI50 [28] was 321 nM. The TGI [28] was 7060 nM, the GI50 [29] was 242 nM and the TGI [29] was 885 nM. The GI50 [45] was 19900 nM, the TGI [45] was > 100000 nM and the GI50 [30] was 11300 nM. For the same compound, the TGI [30] was 51000 nM, the GI50 [31] was 369 nM and the TGI [31] was 9790 nM. The GI50 [32] was 616 nM, the TGI [32] was > 100000 nM and the GI50 [55] was 603 nM. For the same compound, the TGI [55] was 31000 nM, the GI50 [33] was 471 nM and the TGI [33] was > 100000 nM. The GI50 [56] was 108 nM, the GI50 [57] was 239 nM and the TGI [57] was > 100000 nM. For the same compound, the GI50 [34] was 243 nM, the TGI [34] was > 100000 nM and the GI50 [35] was 20200 nM. For the same compound, the TGI [35] was > 100000 nM, the GI50 [36] was 410 nM and the TGI [36] was 19800 nM. The GI50 [37] was 25100 nM, the TGI [37] was > 100000 nM and the GI50 [38] was 112 nM. For the same compound, the TGI [38] was 15200 nM, the GI50 [39] was 348 nM and the TGI [39] was > 84300 nM.
